Data published in patent US11267853B2, “Carbohydrate tethering at cell surfaces to induce immune response” (University of Rhode Island Board of Trustees, priority 2019, dated 2022).
Primed or numbered codes have the meaning given here. Where no end group is shown, it is not given here. Side-chain parts run from the residue outwards. maleimide = maleimide group (rhamnose-PEG12-maleimide) coupled to the N-terminal Cys of the peptide; PEG12′ = polyethylene glycol spacer of 12 units; Rha = rhamnose

Legend:
[1] = system: HeLa cells (tumor spheroids); test: Lectin-Cy3 binding to tumor spheroids pre-treated with rhamnose-pHLIP constructs (fluorescence confocal imaging); assay type: cell-based; details: HeLa spheroids pre-treated with 0-2 μM construct at pH 6.3, 37° C., 30 min, washed; then Lectin-Cy3 at pH 7.4; compared with lectin-Cy3 alone
Description: Induction of an immunological response requires a proper positioning of carbohydrate epitope at the surface of tumor cells. This was verified on 3-D tumor cancer cell culture (tumor spheroids). Briefly, a 2% agarose solution was made by dissolving in pH 7.4 PBS. 150 μL of the solution is pipetted into each well of a 48-well flat bottom tissue culture plate. After the agarose gel sufficiently settled (˜1 h), 150 μL of DMEM supplemented with 10% FBS and ciprofloxacin.HCl was added to each well. The covered plate was left in a humidified atmosphere at 37° C. and 5% CO2 in cell culture incubator for 24 h. On the next day, the excess medium was removed from the agarose layer. HeLa cells (10,000 cells) in 200 μL of DMEM containing 2% matrigel were added into each well and incubated for 3-4 days to allow the formation of spheroids. Matrigel was dissolved on ice overnight and added in ice cold DMEM at a concentration of 2.5% (to obtain a final concentration of 2% once added to the wells). Then the mixture was heated to 37° C. before being combined with the cells. Tumor spheroids were incubated in 50 μL of PBS buffer, pH 6.3 containing 0-2 μM Rha-pHLIP® or Rha-PEG12-pHLIP® in a humidified atmosphere of 5% CO2 at 37° C. for 30 min. After treatment, the spheroids were washed several times in 1 mL of PBS. […]

[2] = system: B16-F10 melanoma murine cancer cells (flank tumor); test: B16-F10 melanoma tumor weight in tri-Gal-immunized A3galt2-knockout mice after IP treatment; assay type: in vivo; details: B16-F10 flank tumors, IP injections 450 μl of 80 μM for 10 consecutive days (total 60 mg/kg), versus non-treated control group
Source text: Mice deficient in α1-3 gylactosyltransferase 2 (A3galt2) on 129/SvEv-[…] background heterozygous breeding pairs was obtained from Taconic Biosciences. The knockout mouse model is described in the article entitled “Normal development and function of invariant natural killer T cells in mice with isoglobotrihexosylceramide (iGb3) deficiency” by Porubsky et al. PNAS 2007 Apr. 3; 104(14): 5977-5982, incorporated herein by reference in its entirety.
All animal studies with the Gal-pHLIP® construct were conducted according to the animal protocol AN1920-003 approved by the Institutional Animal Care and Use Committee at the University of Rhode Island, in compliance with the principles and procedures outlined by the National Institutes of Health for the care and use of animals. Homo- and heterozygous A3galt2-knockout female and male mice on 129/SvEv-C57BL/6J background were used in the study.
First, immunization of mice was performed to develop antibodies against tri-Gal epitope. Briefly, at day 1 mice were immunized with Galα1-3Galβ1-4Glc-HSA (HSA: human serum albumin) from Dextra Laboratories, 20 μg/mouse emulsified in complete Freund's adjuvant. Booster injections of Galα1-3Galβ1-4Glc-HSA emulsified in incomplete Freund's adjuvant were administered at days 13, 20 and 27. […]

| Substance | binding of lectin-Cy3 (fluorescence) to tumor spheroids [1] | tumor weight reduction [2] |
| --- | --- | --- |
| AS(Rha)DDQNPWRAYLDLLFPTDTLLLDLLWA [Rha-pHLIP®] | much stronger binding of lectin-Cy3 |  |
| tri-Gal-PEG4-pHLIP®: tri-Gal-PEG4 (Galα(1,3)Galβ(1,4)Glc-PEG4) coupled with pHLIP® ACDDQNPWRAYLDLLFPTDTLLLDLLWA (SEQ ID NO: 469) (not fully specified (residue 2); also: tri-Gal-PEG4 (Galα(1,3)Galβ(1,4)Glc-PEG4) coupled, site not given here) |  | About 65% |
| Rha-PEG12-pHLIP®: Rhamnose-PEG12-malemide coupled with single Cys at N-terminal end of pHLIP® ACDDQNPWRAYLDLLFPTDTLLLDLLWA (SEQ ID NO: 469) (AC([maleimide-PEG12′-Rha])DDQNPWRAYLDLLFPTDTLLLDLLWA) | much stronger binding of lectin-Cy3 |  |
